# Assay results from patent publication EP4104902B1, “COMPOUNDS AND M[…] SAME” (priority 2020, dated 2021).
# Read-outs that look alike come from different tables or passages of the source.
# Test system: recombinant rabies virus 1088 strain expressing Gaussia Luciferase (GLuc) (1088/GLuc)
# Type: cell-based
SMILES,IC50 (read-out: Anti-rabies activity) [µM],IC50 (read-out: IC50) [µM]
CC(C)CNC(=O)[C@]12NC[C@@H]3C[C@H]1CN(CC(C)C)[C@H]2[C@@H]3Cc1ccccc1 (relative stereo) [IB-3],10 to 30,19.6
CC(C)CNC(=O)[C@]12NC[C@@H]3C[C@H]1CN(Cc1ccccc1)[C@H]2[C@@H]3CC(C)C (relative stereo) [IB-4],10 to 30,19.2
CC(C)C[C@@H]1[C@@H]2CN[C@@]3(C(=O)NCc4ccccc4)[C@@H](C2)CN(CC(C)C)[C@@H]13 (relative stereo) [IB-5],10 to 30,18.2
CC(C)CCN1C[C@@H]2C[C@H]3CN[C@]2(C(=O)NCc2ccccc2)[C@@H]1[C@@H]3Cc1ccccc1 (relative stereo) [IB-9],10 to 30,17
CC(C)CN1C[C@@H]2C[C@H]3CN[C@]2(C(=O)NCCc2ccccc2)[C@@H]1[C@@H]3Cc1ccccc1 (relative stereo) [IB-12],10 to 30,15.5
Cc1cccc(C[C@@H]2[C@@H]3CN[C@@]4(C(=O)NCc5ccccc5)[C@@H](C3)CN(CC(C)C)[C@@H]24)c1 (relative stereo) [IB-13],10 to 30,14.3
Cc1cccc(CNC(=O)[C@]23NC[C@@H]4C[C@H]2CN(CC(C)C)[C@H]3[C@@H]4Cc2ccccc2)c1 (relative stereo) [IB-15],10 to 30,15.9
"O=C(NCc1ccccc1)[C@]12NC[C@H]3C[C@H]1CN(Cc1cccc4ccccc14)[C@H]2[C@@H]3Cc1ccccc1 (relative stereo) [IB-42, (3S*,3aS*,6S*,7R*,7aS*)-N,7-dibenzyl-1-(naphthalen-1-ylmethyl)octahydro-3aH-3,6-methanopyrrolo[3,2-b]pyridine-3a-carboxamide]",10 to 30,–
CC(C)C[C@@H]1[C@@H]2CN[C@@]3(C(=O)NCc4cccc5ccccc45)[C@@H](C2)CN(CC(N)=O)[C@@H]13 (relative stereo) [IB-81],10 to 30,–
NC(=O)CN1C[C@@H]2C[C@H]3CN[C@]2(C(=O)NCc2cccc4ccccc24)[C@@H]1[C@@H]3Cc1ccccc1 (relative stereo) [IB-82],10 to 30,–
NC(=O)CN1C[C@@H]2C[C@H]3CN[C@]2(C(=O)NCc2cccc4ccccc24)[C@@H]1[C@@H]3Cc1ccc(O)cc1 (relative stereo) [IB-83],10 to 30,–
CC(C)CC[C@@H]1[C@@H]2CN[C@@]3(C(=O)NCc4cccc5ccccc45)[C@@H](C2)CN(CC(N)=O)[C@@H]13 (relative stereo) [IB-84],10 to 30,–
CC(C)CC[C@@H]1[C@@H]2CN[C@@]3(C(=O)NCCc4ccccc4)[C@@H](C2)CN(CC(N)=O)[C@@H]13 (relative stereo) [IB-89],< 5,–
NC(=O)CN1C[C@@H]2C[C@H]3CN[C@]2(C(=O)NCc2cccc4ccccc24)[C@@H]1[C@@H]3Cc1cccc2ccccc12 (relative stereo) [IB-90],< 5,–
NC(=O)CN1C[C@@H]2C[C@H]3CN[C@]2(C(=O)NCc2ccc(F)cc2)[C@@H]1[C@@H]3Cc1ccccc1 (relative stereo) [IB-92],10 to 30,–
NC(=O)CN1C[C@@H]2C[C@H]3CN[C@]2(C(=O)NCc2ccc(F)cc2)[C@@H]1[C@@H]3CCc1ccccc1 (relative stereo) [IB-95],< 5,–
NC(=O)CN1C[C@@H]2C[C@H]3CN[C@]2(C(=O)NCc2ccc(F)cc2)[C@@H]1[C@@H]3Cc1cccc2ccccc12 (relative stereo) [IB-96],10 to 30,–
NC(=O)CN1C[C@@H]2C[C@H]3CN[C@]2(C(=O)NCCc2ccccc2)[C@@H]1[C@@H]3Cc1cccc2ccccc12 (relative stereo) [IB-97],< 5,–
CC(C)CCNC(=O)[C@]12NC[C@@H]3C[C@H]1CN(CC(N)=O)[C@H]2[C@@H]3CCc1ccccc1 (relative stereo) [IB-102],< 5,–
CC(C)CCNC(=O)[C@]12NC[C@@H]3C[C@H]1CN(CC(N)=O)[C@H]2[C@@H]3Cc1cccc2ccccc12 (relative stereo) [IB-103],10 to 30,–
CCCCCCNC(=O)[C@]12NC[C@@H]3C[C@H]1CN(CC(N)=O)[C@H]2[C@@H]3Cc1ccccc1 (relative stereo) [IB-105],10 to 30,–
